Results published in ChEMBL document CHEMBL1201862, “PubChem BioAssay data set” (2004).
Active and inactive are the calls of the source.

Key:
Cytochrome P450 2D6 = Cytochrome P450 2D6 (Homo sapiens, UniProt P10635); assay: qHTS Assay for Inhibitors and Substrates of Cytochrome P450 2D6. [Related pubchem assays: 410 ]; assay type: ADME; details: read-out: Potency
[1] = inhibitors of Vif binding to APOBEC3G peptide, primary screen, biochemical, TR-FRET, GST-Vif 1-94, biotin-A3G peptide, dose response retest (AID 1117319); assay type: functional;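 also: TR-FRET signal of purified GST-Vif binding a biotinylated A3G peptide; inhibitors lower the FRET signal by blocking Vif and A3G binding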
Estrogen receptor = molecular target: T1, Estrogen receptor (Homo sapiens, UniProt P03372); assay: potentiators of ERα–SRC-1 coactivator binding, dose response, biochemical, TR-FRET, ERα LBD (AID 737)
T1 sequence (P03372 whole entry): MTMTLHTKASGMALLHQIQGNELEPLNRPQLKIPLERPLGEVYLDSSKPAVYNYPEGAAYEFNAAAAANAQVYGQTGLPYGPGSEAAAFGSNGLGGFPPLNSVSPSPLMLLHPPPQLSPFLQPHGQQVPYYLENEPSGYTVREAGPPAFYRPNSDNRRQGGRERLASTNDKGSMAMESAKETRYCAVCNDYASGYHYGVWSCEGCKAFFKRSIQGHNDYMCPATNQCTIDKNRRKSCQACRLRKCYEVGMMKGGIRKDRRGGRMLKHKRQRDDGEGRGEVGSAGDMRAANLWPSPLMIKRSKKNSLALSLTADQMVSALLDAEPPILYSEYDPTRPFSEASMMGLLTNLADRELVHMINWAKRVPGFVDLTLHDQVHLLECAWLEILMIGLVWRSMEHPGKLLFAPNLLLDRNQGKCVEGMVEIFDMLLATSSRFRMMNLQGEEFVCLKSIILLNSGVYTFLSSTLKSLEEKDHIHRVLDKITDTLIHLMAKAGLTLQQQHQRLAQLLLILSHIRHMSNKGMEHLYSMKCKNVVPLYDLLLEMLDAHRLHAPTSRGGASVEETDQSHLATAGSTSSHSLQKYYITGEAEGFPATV

Protein Tat = molecular target: T2, Protein Tat (Human immunodeficiency virus type 1 group M subtype B (isolate HXB2)(HIV-1), UniProt P04608); assay type: functional;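 also: tat binding to TAR RNA read out by fluorescence polarization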
T2 sequence (P04608 whole entry): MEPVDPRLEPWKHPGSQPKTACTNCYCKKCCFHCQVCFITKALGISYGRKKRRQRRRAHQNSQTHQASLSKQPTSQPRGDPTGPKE

cells = assay type: functional
[2] = THP-1 cell cytotoxicity, dose response, cytotoxicity control for non-replicating M. tuberculosis project (AID 489025); assay type: functional
[3] = molecular target: T3, Lytic switch protein BZLF1 (Epstein-Barr virus (strain B95-8) (HHV-4) (Human herpesvirus 4), UniProt P03206); assay: EBV ZTA inhibitors, dose response, counter-screen for EBNA-1 inhibitor project, biochemical, fluorescence polarization, Epstein-Barr virus, 1536-well (AID 2377); design: species or system human gammaherpesvirus 4;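 also: fluorescence polarization of Cy5-labelled ZRE DNA probe bound by purified Zta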
T3 sequence (P03206 whole entry): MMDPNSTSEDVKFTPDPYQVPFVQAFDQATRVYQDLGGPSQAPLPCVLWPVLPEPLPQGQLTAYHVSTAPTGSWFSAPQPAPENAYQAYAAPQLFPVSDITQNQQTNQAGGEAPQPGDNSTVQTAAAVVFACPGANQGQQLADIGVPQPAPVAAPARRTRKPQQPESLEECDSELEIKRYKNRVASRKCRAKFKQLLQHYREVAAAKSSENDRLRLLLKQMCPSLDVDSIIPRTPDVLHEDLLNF

[4] = molecular target: T4, Epstein-Barr nuclear antigen 1 (Epstein-Barr virus (strain B95-8) (HHV-4) (Human herpesvirus 4), UniProt P03211); assay: EBNA-1 inhibitors, dose response, biochemical, fluorescence polarization, 1536-well (AID 2381); design: species or system human gammaherpesvirus 4;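 also: fluorescence polarization of a Cy5 DNA probe bound by EBNA-1 protein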
T4 sequence (P03211 whole entry): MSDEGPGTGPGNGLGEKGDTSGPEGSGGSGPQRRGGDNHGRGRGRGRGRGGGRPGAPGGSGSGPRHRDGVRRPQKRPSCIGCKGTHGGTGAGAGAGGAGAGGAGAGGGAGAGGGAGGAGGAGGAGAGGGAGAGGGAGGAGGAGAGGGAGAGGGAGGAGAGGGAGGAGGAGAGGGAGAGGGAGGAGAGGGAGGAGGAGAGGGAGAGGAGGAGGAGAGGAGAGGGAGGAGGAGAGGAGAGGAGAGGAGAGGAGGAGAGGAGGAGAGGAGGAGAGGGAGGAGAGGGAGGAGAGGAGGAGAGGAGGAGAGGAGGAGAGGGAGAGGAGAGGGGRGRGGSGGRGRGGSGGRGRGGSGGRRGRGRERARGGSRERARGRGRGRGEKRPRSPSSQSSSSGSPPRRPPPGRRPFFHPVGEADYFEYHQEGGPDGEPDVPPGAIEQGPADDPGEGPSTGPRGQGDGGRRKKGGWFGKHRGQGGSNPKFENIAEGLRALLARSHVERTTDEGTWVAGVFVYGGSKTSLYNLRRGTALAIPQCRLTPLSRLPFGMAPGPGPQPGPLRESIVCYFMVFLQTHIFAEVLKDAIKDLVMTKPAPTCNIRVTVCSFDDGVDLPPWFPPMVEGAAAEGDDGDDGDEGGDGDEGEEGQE

Cytochrome P450 2D6, sequence (P10635 whole entry): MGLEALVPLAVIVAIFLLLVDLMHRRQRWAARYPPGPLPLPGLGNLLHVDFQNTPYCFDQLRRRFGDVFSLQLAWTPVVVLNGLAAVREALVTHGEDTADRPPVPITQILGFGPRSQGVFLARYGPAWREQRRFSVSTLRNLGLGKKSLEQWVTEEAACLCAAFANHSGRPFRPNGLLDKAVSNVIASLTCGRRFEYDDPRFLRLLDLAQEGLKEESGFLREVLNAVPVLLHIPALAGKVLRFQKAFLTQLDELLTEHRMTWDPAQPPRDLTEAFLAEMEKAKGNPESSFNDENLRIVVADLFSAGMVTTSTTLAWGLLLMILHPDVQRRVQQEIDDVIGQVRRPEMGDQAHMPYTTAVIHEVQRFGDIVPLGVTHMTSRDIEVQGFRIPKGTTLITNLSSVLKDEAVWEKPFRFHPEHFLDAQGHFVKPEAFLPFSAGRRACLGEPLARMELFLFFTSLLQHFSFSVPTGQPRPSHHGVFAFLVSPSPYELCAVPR

COc1cccc(/C=C/C2=CC3(C)CC2(C)C(c2cccc(OC)c2)CC3=O)c1 (stereo unspecified)
AC50 (Cytochrome P450 2D6): 3.16 µM (inconclusive)

COc1ccc(C(=O)OCC(=O)c2c(N)n(C)c(=O)n(C)c2=O)cc1OC
IC50 [1]: > 100 µM (active)

O=C(Oc1cccc(-c2cnc3ccccc3n2)c1)c1ccco1
EC50 (Estrogen receptor): 26.9 µM (active)

Cc1ccc(-n2c(C)cc(C(=O)OCC(=O)N(CC(C)C)C3CCS(=O)(=O)C3)c2C)cc1 (stereo unspecified)
IC50 (Protein Tat): > 100 µM (active) | IC50 [1]: > 100 µM (active)

CCOC(=O)c1ccc(-c2ccc(C(=O)Nc3cccnc3)o2)cc1
IC50 (cells): 7.87 µM (active) | CC50 [2]: 29.7 µM (active)

CCc1nnc(NC(=O)CSc2ccc(-c3nc4ccccc4[nH]3)cn2)s1
IC50 [3]: > 111 µM (not active) | IC50 [4]: 17.1 µM (not active)

CCOC(=O)C(C)Oc1cccc2c(=O)n(CC(=O)Nc3ccc4c(c3)OCCO4)ccc12 (stereo unspecified)
EC50 (Estrogen receptor): 12.6 µM (not active)

C[C@]12CC[C@@H]3c4ccc(O)cc4[C@@H](O)C[C@H]3[C@@H]1CC[C@@H]2O
EC50 (Estrogen receptor): 12.7 µM (active)
